From US6593462B2, “Purified β1,2-xylosyltransferase and uses thereof” (priority 1997, dated 2003)

Key:
β1,2-xylosyltransferase [1] = test: Solubilization of xylosyltransferase from microsomes by detergents; type: biochemical, soybean; conditions: for Xylose Transferred to Acceptor (cpm), High Speed Supernatant / Xylose Transferred to Acceptor (cpm), Particulate Suspension: protein 10 mg/ml
Description: In order to purify this glycosyltransferase, it was necessary to solubilize the enzyme from the microsomes. A variety of detergents were tested at different concentrations for their ability to solubilize the xylosyltransferase and maintain its stability. […] The enzymatic activity in the supernatant liquid was then measured in the usual transferase assay.

β1,2-xylosyltransferase [2] = test: Xylosyltransferase activity assay: transfer of 3H-xylose from UDP-[3H]xylose to oligosaccharide acceptor; type: biochemical, soybean; conditions: for Stimulation of enzyme activity / Effect of cation added to the purified enzyme (in words): 1 mM; for Stimulation of enzyme activity: enzyme dialyzed in the presence of EDTA; for Activity (cpm xylose transferred) with Particulate Enzyme / Activity (cpm xylose transferred) with Purified Enzyme: oligosaccharide as acceptor, gel filtration on Biogel P-4; for Km: purified enzyme, FIG. 8
Description: Reaction mixtures for the assay of β1,2-xylosyltransferase contained the following components in a final volume of 25 μl: 100 mM MES buffer, pH 7.0, 10 mM MnCl2, 0.2% Triton X-100, 5 mM ATP, 0.2 mM UDP-[^3H]xylose (15,000 cpm), and 4 nmol of oligosaccharide acceptor (usually GlcNAc2-Man3-GlcNAc2-tyrosinamide; see structure 4 of FIG. 6, or the asialo-agalacto-oligosaccharide from transferrin). The reaction was started by the addition of 5 μl of the enzyme solution, and incubations were usually at 37° C. for 1 hour. The reaction was stopped by the addition of 100 μl of 1% acetic acid, and the reaction mixtures were chromatographed on a column of Biogel P-4 prepared by placing 8 ml of gel into a 10 ml pipette. The columns were equilibrated with 1% acetic acid, and the product was separated from substrates by elution with 1% acetic acid containing 0.2 M NaCl.
When more purified enzyme preparations were used in the assays, the radiolabeled product could be separated from the radioactive substrate by ion-exchange chromatography on an Amberlite column (or a column of Dowex-1-Cl^−) contained in a Pasteur pipette. […] Thus the wash can be counted as a measure of radioactive xylose transferred to oligosaccharide. In these assays, it is important to be certain that the enzyme preparation is free of degradative enzymes that cleave UDP-xylose to free xylose.

β1,2-xylosyltransferase [3] = test: Specificity of nucleoside diphosphate sugar donor for xylosyltransferase; type: biochemical, soybean; conditions: radioactive sugar nucleotide 20,000 cpm, 200 μM, asialo-agalactotransferrin glycopeptide acceptor, 1 hour at 37°; for cpm incorporated into oligosaccharide, Purified Enzyme: about 20 ng protein
Description: The substrate specificity of the xylosyltransferase for the nucleoside diphosphate sugar donor was also examined, using a variety of radiolabeled sugar nucleotides, as presented in Table 4. Each of these substrates was adjusted to have the same specific activity, and they were compared to each other at that activity.
Enzyme (particulate fraction or purified xylosyltransferase (about 20 ng protein) from UDP-hexanolamine-Sepharose) was incubated with radioactive sugar nucleotide (20,000 cpm; 200 μM) and asialo-agalactotransferrin glycopeptide for 1 hour at 37°. The reaction mixture was then separated on a Biogel P-4 column and radioactivity in oligasaccharide was determined.

[4] = test system: β1,2-xylosyltransferase (56 and 59 kDa bands); test: Photoaffinity labeling of xylosyltransferase with N3-UDP[32P]-xylose; type: binding, soybean; conditions: for Effect of unlabeled nucleoside diphosphate sugar on radiolabel in the 56 and 59 kDa bands: 10 and 100 μM (b69 prints 0.1, 1 and 10 μM for UDP-xylose); for Effect of oligosaccharide on binding of UDP-xylose probe: FIG. 3A lanes 12 and 13
Description: In FIG. 3B, effects of various amounts of acceptor oligosaccharides on labeling with UDP-xylose probe are shown.
In order to determine which band was really the xylosyltransferase, the enzyme fraction from UDP-hexanolamine-Sepharose was incubated with azido-UDP[^32P]-xylose, and after 30 sec., the mixture was exposed to UV light to activate the azido group.
Thus, lane 1 is without oligosaccharide acceptor while lanes 2-5 are with 4, 10, 30 and 80 μM oligosaccharide 4 and lanes 6-9 with oligoscacharide 10.

fucosyltransferase = test: Fucose incorporation from GDP-[3H]fucose into oligosaccharide 4 by soybean particulate enzyme; type: biochemical; conditions: oligosaccharide 4 acceptor
Description: Based on the substrate specificity for oligosaccharide acceptor, it would appear that xylose is added after the action of GlcNAc transferase I and mannosidase II but before the addition of galactose residues to the terminal GlcNAc units. Most of these types of N-linked oligosaccharides also contain an […] L-fucose on the innermost GlcNAc unit. In order to determine whether addition of xylose affects fucose transfer to the oligosaccharide, or vice versa, assays were prepared that contained oligosaccharide 4 as acceptor, radiolabeled nucleoside diphosphate sugar (i.e., either UDP-[^3H]xylose or GDP-[^3H]fucose) and either unlabeled UDP-xylose or unlabeled GDP-fucose. Thus, when the incubation contained radioactive UDP-xylose, various amounts of unlabeled GDP-fucose were added to determine whether addition of fucose would stimulate or inhibit xylose transfer. Likewise, when labeled GDP-fucose was used, the incubations contained unlabeled UDP-xylose. These incubations were done with the soybean particulate enzyme, so that both fucosyltransferase and xylosyltransferase were present.

β1,2-xylosyltransferase [5] = test: Xylosyltransferase activity assay: transfer of 3H-xylose from UDP-[3H]xylose to oligosaccharide acceptor; type: biochemical, soybean; conditions: donor substrate; 5 nmoles of oligosaccharide 4; FIG. 9

C[C@H](CCC(=O)NCCC[N+](C)(C)CCCS(=O)(=O)[O-])[C@H]1CC[C@H]2[C@@H]3[C@H](O)C[C@@H]4C[C@H](O)CC[C@]4(C)[C@H]3C[C@H](O)[C@]12C [CHAPS]
Xylose Transferred to Acceptor (cpm), High Speed Supernatant (β1,2-xylosyltransferase [1]; detergent 1%): 541 cpm
Xylose Transferred to Acceptor (cpm), Particulate Suspension (β1,2-xylosyltransferase [1]; detergent 1%): 2168 cpm

CCCCCCCCCCCCCCCC[n+]1ccccc1.[Cl-] [CPC]
Xylose Transferred to Acceptor (cpm), High Speed Supernatant (β1,2-xylosyltransferase [1]; detergent 1%): 64 cpm
Xylose Transferred to Acceptor (cpm), Particulate Suspension (β1,2-xylosyltransferase [1]; detergent 1%): 1341 cpm

[Ca+2].[Cl-].[Cl-] [CaCl2]
Stimulation of enzyme activity (β1,2-xylosyltransferase [2]): 15%

[Ca+2] [Ca^++]
Effect of cation added to the purified enzyme (in words) (β1,2-xylosyltransferase [2]): no stimulation

[Co+2] [Co^++]
Effect of cation added to the purified enzyme (in words) (β1,2-xylosyltransferase [2]): no stimulation

O=C(O)CN(CCN(CC(=O)O)CC(=O)O)CC(=O)O [EDTA]
Effect of EDTA on purified xylosyltransferase (β1,2-xylosyltransferase [2]; addition of, or dialysis against): not inhibited

[Fe+3] [Fe^+++]
Effect of cation added to the purified enzyme (in words) (β1,2-xylosyltransferase [2]): strongly inhibitory

[Fe+2] [Fe^++]
Effect of cation added to the purified enzyme (in words) (β1,2-xylosyltransferase [2]): no stimulation

C[C@@H]1O[C@H](OP(=O)(O)OP(=O)(O)OC[C@H]2O[C@@H](n3cnc4c(=O)[nH]c(N)nc43)[C@H](O)[C@@H]2O)[C@@H](O)[C@H](O)[C@@H]1O [GDP-fucose]
Effect of unlabeled GDP-fucose on xylose incorporation (β1,2-xylosyltransferase [2]; high concentrations, oligosaccharide 4 acceptor, particulate enzyme): some inhibition of xylose incorporation
cpm incorporated into oligosaccharide, Particulate Enzyme (β1,2-xylosyltransferase [3]): 1033 cpm
cpm incorporated into oligosaccharide, Purified Enzyme (β1,2-xylosyltransferase [3]): 142 cpm

Nc1nc2c(ncn2[C@@H]2O[C@H](COP(=O)(O)OP(=O)(O)O[C@H]3O[C@H](CO)[C@@H](O)[C@H](O)[C@@H]3O)[C@@H](O)[C@H]2O)c(=O)[nH]1 [GDP-mannose]
cpm incorporated into oligosaccharide, Particulate Enzyme (β1,2-xylosyltransferase [3]): 75 cpm
cpm incorporated into oligosaccharide, Purified Enzyme (β1,2-xylosyltransferase [3]): 59 cpm

[Hg+2] [Hg^++]
Effect of cation added to the purified enzyme (in words) (β1,2-xylosyltransferase [2]): strongly inhibitory

CC(=O)N[C@H]1[C@H](O[C@H]2[C@H](O)[C@@H](NC(C)=O)C(O)O[C@@H]2CO)O[C@H](CO)[C@@H](O[C@@H]2O[C@H](CO[C@H]3O[C@H](CO[C@H]4O[C@H](CO)[C@@H](O)[C@H](O)[C@@H]4O[C@H]4O[C@H](CO)[C@@H](O)[C@H](O)[C@@H]4O)[C@@H](O)[C@H](O[C@H]4O[C@H](CO)[C@@H](O)[C@H](O)[C@@H]4O[C@H]4O[C@H](CO)[C@@H](O)[C@H](O)[C@@H]4O)[C@@H]3O)[C@@H](O)[C@H](O[C@H]3O[C@H](CO)[C@@H](O)[C@H](O)[C@@H]3O[C@H]3O[C@H](CO)[C@@H](O)[C@H](O)[C@@H]3O[C@H]3O[C@H](CO)[C@@H](O)[C@H](O)[C@@H]3O)[C@@H]2O)[C@@H]1O (stereo partly shown) [Man9(GlcNAc)2]
Activity (cpm xylose transferred) with Particulate Enzyme (β1,2-xylosyltransferase [2]): 48 cpm
Activity (cpm xylose transferred) with Purified Enzyme (β1,2-xylosyltransferase [2]): 262 cpm

[Cl-].[Cl-].[Mg+2] [MgCl2]
Effect of cation added to the purified enzyme (in words) (β1,2-xylosyltransferase [2]): slight stimulation
Stimulation of enzyme activity (β1,2-xylosyltransferase [2]): 11%

[Cl][Mn][Cl] [MnCl2]
Effect of cation added to the purified enzyme (in words) (β1,2-xylosyltransferase [2]): slight stimulation

CCCCCCCCO[C@@H]1O[C@H](CO)[C@@H](O)[C@H](O)[C@H]1O [Octylglucoside]
Xylose Transferred to Acceptor (cpm), High Speed Supernatant (β1,2-xylosyltransferase [1]; detergent 1%): 210 cpm
Xylose Transferred to Acceptor (cpm), Particulate Suspension (β1,2-xylosyltransferase [1]; detergent 1%): 2395 cpm

[Pb+2] [Pb^++]
Effect of cation added to the purified enzyme (in words) (β1,2-xylosyltransferase [2]): strongly inhibitory

C[C@H](CCC(=O)NCCS(=O)(=O)O)[C@H]1CC[C@H]2[C@@H]3[C@H](O)C[C@@H]4C[C@H](O)CC[C@]4(C)[C@H]3C[C@H](O)[C@]12C [Taurocholoate]
Xylose Transferred to Acceptor (cpm), High Speed Supernatant (β1,2-xylosyltransferase [1]; detergent 1%): 1574 cpm
Xylose Transferred to Acceptor (cpm), Particulate Suspension (β1,2-xylosyltransferase [1]; detergent 1%): 1570 cpm

CC(=O)N[C@H]1[C@@H](OP(=O)(O)OP(=O)(O)OC[C@H]2O[C@@H](n3ccc(=O)[nH]c3=O)[C@H](O)[C@@H]2O)O[C@H](CO)[C@H](O)[C@@H]1O [UDP-GalNAc]
cpm incorporated into oligosaccharide, Particulate Enzyme (β1,2-xylosyltransferase [3]): 72 cpm
cpm incorporated into oligosaccharide, Purified Enzyme (β1,2-xylosyltransferase [3]): 63 cpm

CC(=O)N[C@H]1[C@@H](OP(=O)(O)OP(=O)(O)OC[C@H]2O[C@@H](n3ccc(=O)[nH]c3=O)[C@H](O)[C@@H]2O)O[C@H](CO)[C@@H](O)[C@@H]1O [UDP-GlcNAc]
cpm incorporated into oligosaccharide, Particulate Enzyme (β1,2-xylosyltransferase [3]): 246 cpm
cpm incorporated into oligosaccharide, Purified Enzyme (β1,2-xylosyltransferase [3]): 128 cpm

O=C(O)[C@H]1O[C@H](OP(=O)(O)OP(=O)(O)OC[C@H]2O[C@@H](n3ccc(=O)[nH]c3=O)[C@H](O)[C@@H]2O)[C@H](O)[C@@H](O)[C@@H]1O [UDP-glucuronic acid]
Effect of unlabeled nucleoside diphosphate sugar on radiolabel in the 56 and 59 kDa bands [4]: did not inhibit

O=c1ccn([C@@H]2O[C@H](COP(=O)(O)OP(=O)(O)O[C@H]3OC[C@@H](O)[C@H](O)[C@H]3O)[C@@H](O)[C@H]2O)c(=O)[nH]1 [UDP-xylose]
Effect of unlabeled UDP-xylose on incorporation of fucose into oligosaccharide (fucosyltransferase): did not affect the incorporation of fucose
Effect of unlabeled nucleoside diphosphate sugar on radiolabel in the 56 and 59 kDa bands [4]: greatly diminished
Km (β1,2-xylosyltransferase [5]): ~0.1 µM
cpm incorporated into oligosaccharide, Particulate Enzyme (β1,2-xylosyltransferase [3]): 1479 cpm
cpm incorporated into oligosaccharide, Purified Enzyme (β1,2-xylosyltransferase [3]): 2597 cpm

GlcNAc2Man3(GlcNAc)2-T [Oligosaccharide 4]
Effect of oligosaccharide on binding of UDP-xylose probe [4]: greatly stimulated binding of UDP-xylose
Ability to serve as acceptor of xylose (in words) (β1,2-xylosyltransferase [2]): best acceptors
Activity (cpm xylose transferred) with Particulate Enzyme (β1,2-xylosyltransferase [2]): 3578 cpm
Activity (cpm xylose transferred) with Purified Enzyme (β1,2-xylosyltransferase [2]): 3648 cpm
Km (β1,2-xylosyltransferase [2]): ~75 µM

GlcNAc2Man3GlcNAc(Fuc)GlcNAc-T [Oligosaccharide 10]
Effect of oligosaccharide on binding of UDP-xylose probe [4]: greatly stimulated binding of UDP-xylose
Ability to serve as acceptor of xylose (in words) (β1,2-xylosyltransferase [2]): best acceptors
Activity (cpm xylose transferred) with Particulate Enzyme (β1,2-xylosyltransferase [2]): 3212 cpm
Activity (cpm xylose transferred) with Purified Enzyme (β1,2-xylosyltransferase [2]): 2387 cpm
Km (β1,2-xylosyltransferase [2]): ~150 µM

GlcNAc-Man3-5-isomer [Oligosaccharide 9]
Ability to serve as acceptor of xylose (in words) (β1,2-xylosyltransferase [2]): completely inactive as an acceptor
Activity (cpm xylose transferred) with Purified Enzyme (β1,2-xylosyltransferase [2]): 1194 cpm

GlcNAc-Man3-5′-isomer [Oligosaccharide 8]
Effectiveness as xylose acceptor as compared to oligosaccharide 4 (β1,2-xylosyltransferase [2]): about 50%
Activity (cpm xylose transferred) with Purified Enzyme (β1,2-xylosyltransferase [2]): 69 cpm

Transferrin: transferrin obtained from Sigma Chemical Co.
Activity (cpm xylose transferred) with Purified Enzyme (β1,2-xylosyltransferase [2]): 106 cpm

Triton x-100
Enzymatic activity recovered in the supernatant liquid (β1,2-xylosyltransferase [1]; 1% or 2% detergent in Buffer B): at least 80%
Xylose Transferred to Acceptor (cpm), High Speed Supernatant (β1,2-xylosyltransferase [1]; detergent 0.5%): 1189 cpm
Xylose Transferred to Acceptor (cpm), Particulate Suspension (β1,2-xylosyltransferase [1]; detergent 0.5%): 2481 cpm
Xylose Transferred to Acceptor (cpm), High Speed Supernatant (β1,2-xylosyltransferase [1]; detergent 1%): 2188 cpm
Xylose Transferred to Acceptor (cpm), Particulate Suspension (β1,2-xylosyltransferase [1]; detergent 1%): 2689 cpm
Xylose Transferred to Acceptor (cpm), High Speed Supernatant (β1,2-xylosyltransferase [1]; detergent 2%): 2297 cpm
Xylose Transferred to Acceptor (cpm), Particulate Suspension (β1,2-xylosyltransferase [1]; detergent 2%): 2695 cpm
